Experimental data taken from paper PMC10813393 (Biomolecules, 2023).

Legend:
[1] = target: recombinant SARS-CoV-2 3CL^pro (Severe acute respiratory syndrome coronavirus 2, UniProt P0DTD1); assay: biochemical; format: biochemical; conditions: for inhibition of the enzymatic activity of 3CL^pro (in words): judged from IC50 values; for IC50: luminogenic substrate, 60 min, read-out: IC50 for inhibiting SARS-CoV-2 3CL^pro
[2] = target: recombinant SARS-CoV-2 PL^pro (GST-PL^pro) (Severe acute respiratory syndrome coronavirus 2, UniProt P0DTD1); assay: SARS-CoV-2 PLpro luminescent assay; format: biochemical; conditions: for inhibition of PL^pro (in words): judged from IC50 values; for IC50: luminogenic substrate, 60 min, read-out: IC50 for inhibiting SARS-CoV-2 PL^pro
in vitro = format: cell-based; conditions: African green monkey; VERO cells, 72 h exposure, CCK-8; read-out: Cytotoxicity (CC50)
Protocol: A CCK-8 assay (ab228554; Abcam, Cambridge, UK) was performed to evaluate the cytotoxicity of pure compounds. WST-8/CCK8 tetrazolium salt is reduced by cellular dehydrogenases to form an orange formazan product that is soluble in a tissue culture medium. The formazan produced is directly proportional to the number of living and metabolically active cells and is measured via absorbance at 460 nm. Therefore, VERO cells (2 × 10^4 cells/mL) were grown in 96-well microtiter plates at 37 °C in a 5% CO2 incubator for 24 h. Then, they were exposed to serial dilutions of L7OG CY, FA, and RA for 72 h and incubated with CCK8 tetrazolium salt for 4 h at 37 °C in a CO2 incubator. The absorbance was measured at 460 nm using a GloMax® Discover Microplate Reader (Promega, Madison, WI, USA), and the percentage of cellular viability was calculated and compared to untreated cells.
Commercially available cynarin (CY), rosmarinic acid (RA), folic acid (FA), and luteolin-7-O-glucuronide (L7OG) were used to prepare the respective stock solutions.
Specifically, L7OG was dissolved in DMSO to obtain a 5.5 mM solution, RA was dissolved in water to obtain an 8.0 mM solution, CY was dissolved in methanol to obtain a 4.7 mM solution, and FA was dissolved in ethanol to obtain an 8.7 mM solution.
Viability assay of natural compounds
VERO cells were exposed to different concentrations of L7OG, CY, FA, and RA for 72 h and incubated with CCK8 tetrazolium salt for 4 h before measuring the absorbance values in a microplate reader. The percentage of cellular viability was calculated and compared to untreated cells.
Figure S1. Cellular viability assay following treatment with different L7OG, CY, FA, and RA concentrations. VERO cells were incubated for […] with various concentrations of natural compounds, as reported in the material and methods section. Results represent the mean of three biologically independent experiments ± SD.
Table S1. Cytotoxicity (CC50) values (μM) of natural compounds on VERO cells.
(1 picture or pasted object on this page, not shown here)

SARS-CoV-2 M^pro = conditions: cited from earlier work

Compound	inhibition of the enzymatic activity of 3CL^pro (in words) [1]	IC50 [1] [µM]	inhibition of PL^pro (in words) [2]	IC50 [2] [µM]	CC50 at 72 h (in vitro) [µM]	IC50 (SARS-CoV-2 M^pro) [µM]
Nc1nc(=O)c2nc(CNc3ccc(C(=O)N[C@@H](CCC(=O)O)C(=O)O)cc3)cnc2[nH]1 [FA, folic acid, reference compound]	moderate inhibition	232	moderately inhibit	183	107	
O=C(O)[C@H]1O[C@@H](Oc2cc(O)c3c(=O)cc(-c4ccc(O)c(O)c4)oc3c2)[C@H](O)[C@@H](O)[C@@H]1O [Compound L7OG, luteolin-7-O-glucuronide]	moderate inhibition	170	moderately inhibit	153	55.7	
O=C(/C=C/c1ccc(O)c(O)c1)O[C@@H]1C[C@@](OC(=O)/C=C/c2ccc(O)c(O)c2)(C(=O)O)C[C@@H](O)[C@@H]1O [CY, 1,3-dicaffeoylquinic acid]	no enzymatic inhibition	> 300			91.5	
O=C(/C=C/c1ccc(O)c(O)c1)O[C@H](Cc1ccc(O)c(O)c1)C(=O)O [RA, rosmarinic acid]	no enzymatic inhibition	> 300		> 300	78.3	6.84
